Test results as given in PMC4277498 (Cell reports, 2014).

Key:
[1] = test system: gpr126 mutant zebrafish; conditions: forskolin-induced cAMP elevation, ref Monk et al., 2009; cited from earlier work
[2] = test system: β-adrenergic receptor endogenously expressed in COS-7 cells; conditions: COS-7 with endogenous β-adrenergic receptor

SMILES	reversal of peripheral myelination phenotype [1]	dynamic mass redistribution response (EPIC) [2]
C=C[C@@]1(C)CC(=O)[C@]2(O)[C@@]3(C)[C@@H](O)CCC(C)(C)[C@@H]3[C@H](O)[C@H](OC(C)=O)[C@@]2(C)O1 [forskolin]	reversible	
CC(C)NCC(O)c1ccc(O)c(O)c1 (centres unmarked) [isoprenaline]		concentration-dependent cellular responses
